Measured values: PMC10477861, “Efficient Mining of Anticancer Peptides from Gut Metagenome” (Advanced Science, 2023)

Key:
Details in all cases: 25 µM pACP, 24 h, maintenance medium 1% FBS, ratio of viability to vehicle (PBS), at least three technical repetitions
MDA-MB-231 = experiment: MTT primary screening of anticancer activity, MDA-MB-231; format: cell-based
In short: (§1)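 Single-dose screen: 25 µM peptide (final), 24 h, 1% FBS maintenance medium, cells ~60% confluent; MTT viability read-out.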

SK-BR-3 = experiment: MTT primary screening of anticancer activity, SK-BR-3; format: cell-based
In short: as §1

MDA-MB-436 = experiment: MTT primary screening of anticancer activity, MDA-MB-436; format: cell-based
In short: as §1

CT26 = experiment: MTT primary screening of anticancer activity, CT26; format: cell-based, Murine
In short: as §1

T47D = experiment: MTT primary screening of anticancer activity, T47D; format: cell-based
In short: as §1

EFM192A = experiment: MTT primary screening of anticancer activity, EFM192A; format: cell-based
In short: as §1

Hela = experiment: MTT primary screening of anticancer activity, Hela; format: cell-based, Human
In short: as §1

MDA-MB-468 = experiment: MTT primary screening of anticancer activity, MDA-MB-468; format: cell-based
In short: as §1

BT474 = experiment: MTT primary screening of anticancer activity, BT474; format: cell-based
In short: as §1

HT29 = experiment: MTT primary screening of anticancer activity, HT29; format: cell-based, Human
In short: as §1

MDA-MB-453 = experiment: MTT primary screening of anticancer activity, MDA-MB-453; format: cell-based
In short: as §1

HCT116 = experiment: MTT primary screening of anticancer activity, HCT116; format: cell-based, Human
In short: as §1

B16 = experiment: MTT primary screening of anticancer activity, B16; format: cell-based, Mouse
In short: as §1

MCF7 = experiment: MTT primary screening of anticancer activity, MCF7; format: cell-based
In short: as §1

LCC = experiment: MTT primary screening of anticancer activity, LCC; format: cell-based
In short: as §1

Caco2 = experiment: MTT primary screening of anticancer activity, Caco2; format: cell-based, Human
In short: as §1

Sequence | Survival rate of cancer cells in primary screening (MDA-MB-231) | Survival rate of cancer cells in primary screening (SK-BR-3) | Survival rate of cancer cells in primary screening (MDA-MB-436) | Survival rate of cancer cells in primary screening (CT26) | Survival rate of cancer cells in primary screening (T47D) | Survival rate of cancer cells in primary screening (EFM192A) | Survival rate of cancer cells in primary screening (Hela) | Survival rate of cancer cells in primary screening (MDA-MB-468) | Survival rate of cancer cells in primary screening (BT474) | Survival rate of cancer cells in primary screening (HT29) | Survival rate of cancer cells in primary screening (MDA-MB-453) | Survival rate of cancer cells in primary screening (HCT116) | Survival rate of cancer cells in primary screening (B16) | Survival rate of cancer cells in primary screening (MCF7) | Survival rate of cancer cells in primary screening (LCC) | Survival rate of cancer cells in primary screening (Caco2)
NTGGIQKIQPLRKTDPLLAPCVSGRIGCPGRRCS [pACP1412] | 1.00 | 1.00 | 1.00 | 1.00 | 0.74 | 1.00 | 1.00 | 1.00 | 1.00 | 1.00 | 1.00 | 1.00 | 0.80 | 1.00 | 1.00 | 1.00
PPSTRIISKVYPFKKHARGGWAIPGMMCSQMVER [pACP1472] | 1.00 | 1.00 | 1.00 | 1.00 | 1.00 | 1.00 | 1.00 | 0.76 | 1.00 | 1.00 | 1.00 | 1.00 | 1.00 | 1.00 | 1.00 | 1.00
PVCRKEKKDGKRCVARYVEHFAGKDRRMQA [pACP1505] | 1.00 | 1.00 | 1.00 | 1.00 | 0.76 | 1.00 | 1.00 | 1.00 | 1.00 | 1.00 | 1.00 | 1.00 | 0.78 | 1.00 | 1.00 | 1.00
QESDAKKYGVGGYFQGLLSQ [pACP1529] | 1.00 | 1.00 | 1.00 | 1.00 | 0.75 | 1.00 | 1.00 | 1.00 | 1.00 | 1.00 | 1.00 | 1.00 | 1.00 | 1.00 | 1.00 | 1.00
RCPCKGNTHRRYSIMFCNFDCASLLKLLCGFFGKC [pACP1621] | 1.00 | 1.00 | 1.00 | 1.00 | 0.72 | 0.79 | 1.00 | 1.00 | 1.00 | 1.00 | 1.00 | 1.00 | 0.79 | 1.00 | 1.00 | 1.00
RLIVRMKTLYEKAAQMEIKIVENRFTRHEKKNKINRIKRKREK [pACP1722] | 1.00 | 0.63 | 0.27 | 0.35 | 0.29 | 1.00 | 0.13 | 1.00 | 0.14 | 0.63 | 0.11 | 1.00 | 0.56 | 0.31 | 1.00 | 0.70
RLRPVILCKKRRLAAGRKKVGRQKKRKASAEGKEGRSPKKKKDGCW [pACP1739] | 1.00 | 0.53 | 0.51 | 1.00 | 0.40 | 1.00 | 0.16 | 0.39 | 0.21 | 1.00 | 0.18 | 1.00 | 1.00 | 0.28 | 1.00 | 1.00
RPITNVGGFLEVNGKGVKPLHGNKFKCTVSGSFLASGWFTLELERVL [pACP1757] | 1.00 | 1.00 | 1.00 | 1.00 | 0.76 | 1.00 | 1.00 | 1.00 | 1.00 | 1.00 | 1.00 | 1.00 | 0.79 | 1.00 | 1.00 | 1.00
